Among the data in patent US9012431B2, “Boron-containing small molecules as anti-inflammatory agents” (Anacor Pharmaceuticals, Inc., priority 2008, dated 2015) are melting point, IC50 and inhibition in vivo values, retold here.

The term melting point denotes the temperature, or range, at which the solid turns liquid. What is called IC50 is the concentration at which inhibition is half-maximal. High values mean a need for much substance, low ones inhibition by little substance. Usually inhibition in vivo stands for the drop in the measured response relative to a control, in per cent. A higher inhibition in vivo goes with a response far below the control.

For one series, the system named is TNF-α. The series is described as follows: Cytokine assay, TNF-α release from PBMC. Format: cell-based. To be noted: Homo sapiens, PBMC, 24 h, 1 μg/mL LPS, supernatant at 24 hours. The method in brief: (§1)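 Cryopreserved human PBMC were thawed and resuspended in RPMI 1640 with 10% FBS. Test compounds, diluted from 10 mM DMSO stocks, were applied in triplicate at 10, 1, 0.1 and 0.01 μM, and cytokine release was measured.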

Series [1] deals with T1, PDE4 partially purified from human U-937 myeloid leukemia cells.
T1 construct: PDE4 partially purified from human U-937 myeloid leukemia cells was used
The series is described as follows: PDE4 Assay (enzyme from U-937 cells, [3H]cAMP). Format: biochemical. To be noted: PDE4 from U-937 cells, Tris buffer pH 7.5, 20 minutes at 25° C.

In the next series the test system is IFN-γ. The series is described as follows: Cytokine assay, IFN-γ release from PBMC. Format: cell-based. To be noted: human PBMC, 20 ug/mL PHA, supernatant at 24 hours. An outline of the steps: as §1
Series [2] concerns CD-1 (Crl.) derived male mice. As to the kind of experiment: Phorbol Ester Induced Mouse Ear Edema Model. The format is in vivo. To be noted: topical, 6 h; for inhibition in vivo at 0.2 mg: 0.2 mg/ear × 2 topical; for inhibition in vivo at 1 mg: 1 mg/ear × 2 topical; for inhibition in vivo at 3 mg: 3 mg/ear × 2 topical; for inhibition in vivo at 0.02 mg: 0.02 mg/ear × 2 topical; for inhibition in vivo at 0.067 mg: 0.067 mg/ear × 2 topical. An outline of the steps: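 Test compounds in acetone:ethanol 1:1 were applied topically to both ears 30 min before and 15 min after PMA challenge; dexamethasone positive control followed the same schedule. Ear thickness was measured by micrometer 6 h after PMA, and percent inhibition was calculated from ear-thickness increase versus vehicle controls.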

The subject of another series is IL-2. The series is described as follows: Cytokine assay, IL-2 release from PBMC. To be noted: human PBMC, 20 ug/mL PHA, supernatant at 24 hours. Format: cell-based. An outline of the steps:
as §1

A further series deals with BALB/c male mice. The series is described as follows: Oxazolone Induced Mouse Ear Edema Model. To be noted: for inhibition in vivo at 1 mg: 1 mg/ear × 2 topical. The format is in vivo. As to the method:
2. In Vivo Anti-Inflammation Activity in Oxazolone Induced Mouse Ear Edema Model
Groups of 5 BALB/c male mice weighing 23±2 g were used. The preshaved abdomens of test animals were sensitized by application of 100 μl, of 1.5% oxazolone solution dissolved in acetone. Seven days after the initial sensitization, test substances, as well as vehicle (acetone:ethanol/1:1, 20 μL/ear) were each administered topically to the anterior and posterior surfaces of the right ear 30 minutes before, and 15 minutes after, challenge by a second application of oxazolone (1% in acetone, […]) via topical route. As a positive control, indomethacin (0.3 mg/ear×2) was administered topically using the same treatment regime as for the test compounds. Twenty-four hours after the second application of oxazolone, the ear thickness of each mouse was measured with a Dyer model micrometer gauge. A 30 percent or more inhibition in ear swelling relative to the vehicle control was considered significant and indicated possible anti-inflammatory activity.

The subject of a further series is IL-5. As to the kind of experiment: Cytokine assay, IL-5 release from PBMC. To be noted: human PBMC, 20 ug/mL PHA, supernatant at 48 hours. Format: cell-based. An outline of the steps:
as §1

A further series has as its system IL-10. As to the kind of experiment: Cytokine assay, IL-10 release from PBMC. Format: cell-based. To be noted: human PBMC, 20 ug/mL PHA, supernatant at 48 hours. An outline of the steps:
as §1

Setting [3] is: Acetone:Ethanol/1:1, ear swelling 6 hours after PMA.
The mark [4] stands for this setting: Acetone:Ethanol/1:1, ear thickness 24 hours after second oxazolone application.
The mark [5] stands for this setting: 95% Ethanol, ear swelling 6 hours after PMA.
Where [6] appears, read: […] × 2 topical, 95% Ethanol, ear swelling 6 hours after PMA.

Turning to `N#Cc1ccc(Oc2ccc(B(O)O)cc2)cc1`, the melting point is 194 to 198 °C.

With `COc1cc(Oc2ccc3c(c2)COB3O)ccc1C#N` [D12, 5-(4-Cyano-3-methoxyphenoxy)-1,3-dihydro-1-hydroxy-2,1-benzoxaborole], the IC50 with TNF-α is below 1000 nM; in [1], below 1000 nM; with IFN-γ, below 1000 nM; in the series with IL-2, below 1000 nM; in the series on IL-5, 1000 to 4000 nM; with IL-10, below 1000 nM. Further, the inhibition in vivo at 0.2 mg was below 30% in series [2] (setting [3]) and below 20% in the series with BALB/c male mice (0.2 mg/ear × 2 topical, Acetone:Ethanol/1:1, ear thickness 24 hours after second oxazolone application). Moreover, the inhibition in vivo at 1 mg in series [2] (setting [3]) lay within 30 to 60%; in the series with BALB/c male mice (setting [4]) it was 30 to 40%.

Consider `CCOC(=O)c1ccc(Oc2ccc3c(c2)COB3O)cc1OC` [D35, 4-(1-Hydroxy-1,3-dihydro-benzo[c][1,2]oxaborol-5-yloxy)-2-methoxy-benzoic acid ethyl ester], for which the melting point lay in the range of 64.9 to 65.2 °C. In the series on TNF-α, this molecule had an IC50 below 1000 nM. In series [1], this molecule gave an IC50 below 1000 nM. Moreover, the IC50 in the series with IFN-γ is below 1000 nM. Also, the half-inhibitory concentration (IC50) with IL-2 is below 1000 nM.

`COc1cc(Oc2ccc3c(c2)COB3O)ccc1C(=O)O` [D36, 4-(1-Hydroxy-1,3-dihydro-benzo[c][1,2]oxaborol-5-yloxy)-2-methoxy-benzoic acid] yielded a melting point of 109.6 to 110.1 °C. This molecule also came in with an IC50 in the series with TNF-α above 10000 nM. This molecule also yielded an IC50 with IFN-γ above 10000 nM. In addition, the half-inhibitory concentration (IC50) in the series with IL-2 is above 10000 nM.

Turning to `N#Cc1ccc(Oc2ccc3c(c2)COB3O)cc1OC1CCCC1` [D37, 2-Cyclopentyloxy-4-(1-hydroxy-1,3-dihydro-benzo[c][1,2]oxaborol-5-yloxy)-benzonitrile], the IC50 (in the series on TNF-α; in [1]; in the series with IFN-γ; with IL-2; with IL-5; in the series on IL-10) was below 1000 nM throughout. The values for the inhibition in vivo at 1 mg (in series [2] (setting [3]); in the series on BALB/c male mice (setting [4])) were 60 to 90% and below 20%, respectively. In addition, the inhibition in vivo at 3 mg in series [2] (setting [5]) fell in the range of 60 to 90%.

As to `COc1nc(Oc2ccc3c(c2)COB3O)ccc1C#N` [D46, 6-(1-hydroxy-1,3-dihydrobenzo[c][1,2]oxaborol-5-yloxy)-2-methoxynicotinonitrile], the IC50 (with TNF-α; in series [1]; in the series on IFN-γ; in the series with IL-2; with IL-5; in the series on IL-10) was below 1000 nM each time. In addition, in [2] (0.05 mg/ear × 2 topical, 95% Ethanol, ear swelling 6 hours after PMA), the inhibition in vivo at 0.05 mg is below 30%. The same molecule showed an inhibition in vivo at 0.1 mg in series [2] (0.1 mg/ear × 2 topical, Acetone:Ethanol/1:1, ear swelling 6 hours after PMA) below 30%. The molecule further came in with an inhibition in vivo at 0.17 mg in series [2] (0.17 mg/ear × 2 topical, 95% Ethanol, ear swelling 6 hours after PMA) below 30%. In series [2] (setting [3]), this molecule yielded an inhibition in vivo at 0.2 mg below 30%. In series [2] (0.5 mg/ear × 2 topical, 95% Ethanol, ear swelling 6 hours after PMA), the inhibition in vivo at 0.5 mg is below 30%. The inhibition in vivo at 1 mg is 60 to 90% in series [2] (setting [3]) and below 20% in the series with BALB/c male mice (setting [4]). The molecule also registered an inhibition in vivo at 3 mg in [2] (setting [5]) of 60 to 90%.

As to `CC(C)OC(=O)c1ccc(Oc2ccc3c(c2)COB3O)nc1` [D67, Isopropyl 6-(1-hydroxy-1,3-dihydrobenzo[c][1,2]oxaborol-5-yloxy)nicotinate], the IC50 (in the series on TNF-α; in series [1]; in the series on IFN-γ; with IL-2; with IL-5; in the series with IL-10) was below 1000 nM each time. Moreover, the figures for the inhibition in vivo at 1 mg (in series [2] (setting [3]); with BALB/c male mice (setting [4])) were 60 to 90% and below 20%, respectively.

For `CCCCOC(=O)c1ccc(Oc2ccc3c(c2)COB3O)nc1` [D68, n-Butyl 6-(1-hydroxy-1,3-dihydrobenzo[c][1,2]oxaborol-5-yloxy)nicotinate], the IC50 with TNF-α was below 1000 nM; in series [1], below 1000 nM; with IFN-γ, 4000 to 10000 nM; in the series with IL-2, below 1000 nM; in the series on IL-5 it was 1000 to 4000 nM; in the series with IL-10, 1000 to 4000 nM. For the same molecule, the inhibition in vivo at 1 mg in series [2] (setting [3]) is 30 to 60%; in the series on BALB/c male mice (setting [4]) it was below 20%.

Turning to `N#Cc1ccc(Oc2ccc3c(c2)COB3O)nc1N1CCCC1` [D97, 6-(1-Hydroxy-1,3-dihydro-benzo[c][1,2]oxaborol-5-yloxy)-2-pyrrolidin-1-yl-nicotinonitrile], the IC50 (in the series with TNF-α; in series [1]; in the series on IFN-γ; in the series with IL-2; with IL-5; with IL-10) was below 1000 nM throughout. Moreover, the inhibition in vivo at 0.19 mg in [2] (0.19 mg/ear × 2 topical, 95% Ethanol, ear swelling 6 hours after PMA) was below 30%. Further, the inhibition in vivo at 0.056 mg in series [2] (setting [6]) is below 30%. The inhibition in vivo at 0.56 mg in [2] (setting [6]) was 30 to 60%; in the series on BALB/c male mice (0.56 mg/ear × 2 topical, 95% Ethanol, ear thickness 24 hours after second oxazolone application), below 20%.

Turning to `N#Cc1ccc(Oc2ccc3c(c2)COB3O)nc1OCCO` [D99, 6-(1-Hydroxy-1,3-dihydro-benzo[c][1,2]oxaborol-5-yloxy)-2-(2-hydroxy-ethoxy)-nicotinonitrile], the IC50 (with TNF-α; in [1]; with IFN-γ; in the series with IL-2; in the series with IL-5; in the series on IL-10) was below 1000 nM throughout. The inhibition in vivo at 0.02 mg in series [2] (setting [5]) was below 30%; in the series with BALB/c male mice (0.02 mg/ear × 2 topical, 95% Ethanol, ear thickness 24 hours after second oxazolone application), below 20%. The same molecule came in with an inhibition in vivo at 0.067 mg in [2] (setting [5]) below 30%. The inhibition in vivo at 0.2 mg in series [2] (setting [5]) is below 30%. The molecule also gave an inhibition in vivo at 3 mg in [2] (setting [5]) of 60 to 90%. The molecule also came in with an inhibition in vivo at 1 mg in the series on BALB/c male mice (setting [4]) below 20%.

Turning to `N#Cc1ccc(Oc2ccc3c(c2)COB3O)nc1N1CCOCC1` [D102, 6-(1-Hydroxy-1,3-dihydro-benzo[c][1,2]oxaborol-5-yloxy)-2-morpholin-4-yl-nicotinonitrile], the IC50 with TNF-α is below 1000 nM; in series [1] it was below 1000 nM; with IFN-γ, below 1000 nM; with IL-2, below 1000 nM; in the series with IL-5, below 1000 nM; in the series with IL-10 it was 1000 to 4000 nM. The molecule further gave an inhibition in vivo at 0.02 mg in series [2] (setting [5]) below 30%. The molecule also displayed an inhibition in vivo at 0.067 mg in [2] (setting [5]) below 30%. Further, the figures for the inhibition in vivo at 1 mg (in series [2] (setting [5]); with BALB/c male mice (setting [4])) were 30 to 60% and below 20%, respectively. Besides, the inhibition in vivo at 3 mg in series [2] (setting [5]) was in the range of 30 to 60%.

As for `CCOc1nc(Oc2ccc3c(c2)COB3O)ccc1C#N` [D107, 2-Ethoxy-6-(1-hydroxy-1,3-dihydro-benzo[c][1,2]oxaborol-5-yloxy)-nicotinonitrile], the 50% inhibitory concentration (IC50) (with TNF-α; in [1]; in the series on IFN-γ; with IL-2; in the series with IL-5; in the series with IL-10) was below 1000 nM in each case. In addition, the inhibition in vivo at 0.02 mg in series [2] (setting [5]) is below 30%. The molecule further displayed an inhibition in vivo at 0.06 mg in series [2] (0.06 mg/ear × 2 topical, 95% Ethanol, ear swelling 6 hours after PMA) below 30%. The molecule further gave an inhibition in vivo at 0.067 mg in [2] (setting [5]) of 30 to 60%. This molecule also displayed an inhibition in vivo at 0.2 mg in series [2] (setting [5]) of 60 to 90%. The same molecule showed an inhibition in vivo at 0.24 mg in [2] (0.24 mg/ear × 2 topical, 95% Ethanol, ear swelling 6 hours after PMA) of 30 to 60%. This molecule also displayed an inhibition in vivo at 0.8 mg in series [2] (0.8 mg/ear × 2 topical, 95% Ethanol, ear swelling 6 hours after PMA) of 60 to 90%. The inhibition in vivo at 2.4 mg was 60 to 90% in series [2] (2.4 mg/ear × 2 topical, 95% Ethanol, ear swelling 6 hours after PMA) and below 20% with BALB/c male mice (2.4 mg/ear × 2 topical, 95% Ethanol, ear thickness 24 hours after second oxazolone application).

For `CCOc1cc(Oc2ccc3c(c2)COB3O)ccc1C#N` [D124, 2-Ethoxy-4-(1-hydroxy-1,3-dihydrobenzo[c][1,2]oxaborol-5-yloxy)benzonitrile], the IC50 (with TNF-α; in series [1]; in the series on IFN-γ; in the series on IL-2; in the series with IL-5; in the series with IL-10) was below 1000 nM throughout. Besides, the inhibition in vivo at 1 mg in series [2] (setting [5]) was below 30%; with BALB/c male mice (setting [4]), below 20%.
